Here are results for 4 compounds from patent publication US20250387322A1, “DRUG DELIVERY AGENTS FOR PREVENTION OR TREATMENT OF PULMONARY DISEASE” (UNIVERSITY INDUSTRY FOUNDATION, YONSEI UNIVERSITY WONJU …, priority 2018, published 2025).

The subject of data set [1] is lung cancer metastasis model. As to the kind of experiment: Optical imaging of carrier/drug distribution in lung cancer metastasis model. In kind it is in vivo. How it is done:
FIG. 9 is an optical microscope image of major organs 3 hours after injecting a lung disease drug delivery carrier according to one Example of the present disclosure and Comparative Example into a lung cancer metastasis model. A GFP filter image may identify the presence or absence of cancer and a location thereof by labeling cancer cells with GFP (green fluorescent protein).
FIG. 10 is an optical microscope image of a lung cancer metastasis model injected with a lung disease drug delivery carrier according to one Example of the present disclosure.
FIG. 18A is an image of photographing the locations of cancer tumor and the locations of an injected DOX-DPP (doxorubicin-loaded disc-shaped drug delivery carrier) in an animal model, and FIG. 18B illustrates comparison of the locations of cancer tumor in major organs and amounts of doxorubicin alone (free DOX) or DOX-DPP in major organs. In this regard, the scale bar in FIG. 18A means 5 mm, and the scale bar in FIG. 18B means 20 mm. In addition, the cancer is a cancer cell expressing a GFP green fluorescent protein.

The subject of data set [2] is C57BL/6 mice with lung cancer.
The conditions of data set [3]: in vivo; cited from earlier work.
Data set [4] relates to pulmonary fibrosis animal model. Briefly: Bleomycin (BLM) pulmonary fibrosis model: histopathology, immunohistochemistry, micro-CT. In kind it is in vivo. To be noted: FIG. 15A. The source says: FIG. 15A illustrates an effect of nintedanib-loaded PLGA disc particles according to one embodiment of the present disclosure, and FIGS. 15B to 15E illustrate experimental results according to each comparison group. […] FIGS. 15A to 15E illustrate results obtained by evaluating tissue morphology and degrees of inflammation and fibrosis through histopathological and immunohistochemical changes. Also, a scale bar in FIG. 15A is 100 μm. […] At this time, Nib is orally administered in the BLM and Nib administered group.

For data set [5] the following is noted: in vivo; cited from earlier work. This is another data set of the same source.

For the compound `COc1cccc2c1C(=O)c1c(O)c3c(c(O)c1C2=O)C[C@@](O)(C(=O)CO)C[C@@H]3O[C@H]1C[C@H](N)[C@H](O)[C@H](C)O1` [Comparative Example 2, doxorubicin], the “accumulation in major organs” value in data set [1] (3 hours after injecting, lung cancer metastasis model, FIG. 9) was “accumulated in the liver and kidneys in addition to the lungs”. The “distribution of drug in major organs” value in data set [1] (animal model with GFP-expressing cancer, FIGS. 18A, 18B) is reported as “the drug is distributed even in major organs”. Moreover, the “metastatic tumor nodules in lung” value in data set [2] (FIG. 19B) is listed as “more metastatic tumor nodules appeared”. Also, the cardiac toxicity result in data set [2] (long-period administration) is on record as “cardiac toxicity appears”. The “inflammation in heart and kidney” value in data set [2] (organ tissue images, FIG. 20) is “strong inflammatory responses occur in the heart and kidney”.

`CCNC(=O)[C@@H]1CCCN1C(=O)[C@H](CCCNC(=N)N)NC(=O)[C@H](CC(C)C)NC(=O)[C@@H](CC(C)C)NC(=O)[C@H](Cc1ccc(O)cc1)NC(=O)[C@H](CO)NC(=O)[C@H](Cc1c[nH]c2ccccc12)NC(=O)[C@H](Cc1c[nH]cn1)NC(=O)[C@@H]1CCC(=O)N1` [Leuprolide]: the “bioavailability compared to the subcutaneous route” value in data set [3] is recorded as 50%.

As to `COC(=O)c1ccc2c(c1)NC(=O)/C2=C(\Nc1ccc(N(C)C(=O)CN2CCN(C)CC2)cc1)c1ccccc1` [Nib, nintedanib], in data set [4], the “inflammatory response and fibrous mass (histopathology)” value is “an inflammatory response is shown and the formation of a dense fibrous mass is shown”.

A word on the bioavailability: it is dose-corrected exposure relative to a reference, in per cent. As for `Cc1ccc(=O)n(-c2ccccc2)c1` [pirfenidone], the bioavailability in data set [5] is reported as 4.7%.
